Test results: patent US12226381B2, “Composition of fused tricyclic gamma-amino acid derivatives and the preparation thereof” (SICHUAN HAISCO PHARMACEUTICAL CO., LTD., priority 2018, dated 2025)

System: CCI molded SD rats
Test: Rat CCI-induced nociception sensitization model, mechanical pain threshold
Format: in vivo
Conditions: single oral administration; for mechanical pain threshold: FIGS. 2 and 3
Description: 3. Rat CCI-Induced Nociception Sensitization Model
SD rats of 160-180 g were purchased from Charles River (Beijing) with a license number of sCXK (Beijing)-2012-001 and a qualification number of 11400700254251. The surgery was performed to establish the CCI model as follows: the animals ware first anesthetized, then the left posterior sciatic nerve was exposed. A 2 mm long PE-90 catheter was applied to the middle site of the sciatic nerve. Finally the muscle and skin were sutured. Adaptation of the animal's left hind limb at 15g was carried out from day 10 after the surgery, three times a week.
The baseline testing was performed 17 days after surgery (starting from 2g at the time of testing, with an upper limit of 8g and a lower limit of 1g which is the −24h point), with a pain threshold of 1-4g as a grouping criterion. Grouping was done according to baseline test results, with 10 animals per group. The animals in the group were fasted but given water overnight. On the second day, mechanical pain values were tested at 2 h, 4 h and 6 h after oral/intragastric administration. The test started at 8 g, with an upper limit of 15g and a lower limit of 1g.
The data were processed according to equation (1) to calculate the PWT 50% value, where Xf is the log value of the final test fibers used in the test, k is a table value (Chaplan et al., 1994), and δ is the mean difference (here 0.224). PWT50%(g)=(10[Xf+kδ])/10000 [equation (1)]
The data were expressed in a form of mean±standard deviation (X±s) and were statistically analyzed using one-way ANOVA and Dunnett's t test (Graphpad prism 6.01).

SMILES: NC[C@@]1(CC(=O)O)[C@@H]2CC[C@H]3C[C@@H]2[C@@H]1C3.O=S(=O)(O)c1ccccc1 [Compound 1]
- effective dose: 3 mg/kg
- mechanical pain threshold: significantly increased

SMILES: CC(C)C[C@H](CN)CC(=O)O [pregabalin]
- effective dose: 10 mg/kg
- mechanical pain threshold: significantly increased
